From the supplement of paper PMC10933438, “Inhibition of urease-mediated ammonia production by 2-octynohydroxamic acid in hepatic encephalopathy” (Nature Communications, 2024)

How the values were obtained:
Experiment in all cases: revertant-positive wells per 48 wells (Ames fluctuation test); higher = more mutagenic; extreme values may be limits of the assay
Conditions in all cases: exposure time: 90 min
[1] = tested on: Salmonella typhimurium TA98
Procedure: (§1)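 Ames MPF Penta 1 microplate fluctuation assay (Xenometrix): bacteria exposed to compound (in DMSO) for 90 min at 37 °C with or without rat liver S9 fraction, then 2-day selection in histidine/tryptophan-free pH-indicator medium in 384-well plates; read-out is the number of revertant (yellow) wells out of 48, triplicate; compound considered mutagenic at >=2-fold over negative (DMSO) control baseline. Zero wells at high doses reflect cytotoxicity.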

[2] = tested on: Salmonella typhimurium TA1535
Procedure: as §1

[3] = tested on: Salmonella typhimurium TA100
Procedure: as §1

[4] = tested on: Salmonella typhimurium TA1537
Procedure: as §1

CCCCCC#CC(=O)NO [2-octynohydroxamic acid]
revertant-positive wells per 48 wells
Conditions | 0.01 mM | 0.05 mM | 0.5 mM | 1 mM | 5 mM | 10 mM
[1], S9 metabolic activation: with S9 | 0 | 1 | 1 | 0.333 | 0 | 0
[1], S9 metabolic activation: without S9 | 1.67 | 0.333 | 1.67 | 0 | 0 | 0
[2], S9 metabolic activation: with S9 | 0.333 | 2 | 0.667 | 1.33 | 0 | 0
[2], S9 metabolic activation: without S9 | 1 | 1 | 1.67 | 0.667 | 0 | 0
[3], S9 metabolic activation: with S9 | 9.33 | 6 | 0.333 | 0 | 0 | 0
[3], S9 metabolic activation: without S9 | 3 | 3 | 1.33 | 0 | 0 | 0
[4], S9 metabolic activation: with S9 | 0.333 | 1.33 | 0 | 0 | 0 | 0
[4], S9 metabolic activation: without S9 | 1 | 0.333 | 1.33 | 3 | 0 | 0

CC(=O)NO [acetohydroxamic acid]
revertant-positive wells per 48 wells, [3]
Conditions | 0.01 mM | 0.05 mM | 0.5 mM | 1 mM | 5 mM | 10 mM
S9 metabolic activation: with S9 | – | 7.33 | 7.33 | 10.3 | 15 | 18.7
S9 metabolic activation: without S9 | 3.67 | 4.33 | – | 5.67 | 13.3 | 17.3

CCCCCCCC(=O)NO [octanohydroxamic acid]
revertant-positive wells per 48 wells
Conditions | 0.01 mM | 0.05 mM | 0.5 mM | 1 mM | 5 mM | 10 mM
[2], S9 metabolic activation: with S9 | – | 2 | – | – | – | 0
[2], S9 metabolic activation: without S9 | 1 | – | – | – | 0 | 0
[3], S9 metabolic activation: with S9 | 3.67 | 6.33 | – | – | 5 | 0
[3], S9 metabolic activation: without S9 | 5 | 7.67 | 6 | 8.67 | 0 | 0
[4], S9 metabolic activation: with S9 | – | 1 | 0 | 0 | 0 | 0
[4], S9 metabolic activation: without S9 | – | – | – | – | 0 | 0
